We go through one compound from paper PMC5847048 (Psychopharmacology, 2017).

The test system of series [1] is middle-aged mice (14–15 months old). Put plainly: Contextual serial discrimination (CSD) task. The conditions noted are these: for Strength of contextual memory (SCM) score, first discrimination D1: Experiment 1 study A, middle-aged mice, vehicle − 21.66%; for SCM score (LSMeans ± SE LSMeans): Experiment 2, 9 days, D1. It counts as in vivo, mouse. The protocol:
Treatments were administered per os daily for nine consecutive days for studies involving the CSD and SA tasks. The 8th and the 9th oral administrations were given 60 min before acquisition and test phases in the CSD task, or before the training and the test sessions in the SA task.
The studies were carried out on mice according to the procedure described in full by Celerier et al. ([2004]) and Tronche et al. ([2010]) (Fig.1). Briefly, the mouse learns two consecutive spatial discriminations (D1 and D2) in a four hole-board apparatus (45 × 45 × 30 cm) enclosed with gray Plexiglas walls. The floor of the hole-board was interchangeable (white and rough versus black and smooth). On the floor, four holes opening on a food cup (3-cm diameter × 2.5-cm depth) were located 6 cm away from the sidewalls. Photocells located into the holes allowed an automatic recording of the number of head-dips in each hole.
Fig. 1 a Contextual serial discrimination: at the acquisition phase, mice performed two consecutive spatial discrimination sessions varying by the color and texture of the floor, i.e., D1, discrimination 1, and D2, discrimination 2. For each discrimination session, only one out of the four holes of the apparatus was baited (hashed circles). […] One hour prior to acquisition and test phases, mice received a per os administration of the compounds or vehicle solution in a chamber placed in a room (room C) different from the one in which the behavioral experiments were conducted (room A). Subsequently, mice were submitted to the test phase in which they were repositioned on the floor of the first discrimination without any food pellet in the apparatus. b Two types of responses were calculated: (i) correct responses corresponding to head-dips into the hole baited at the acquisition of the first discrimination (D1), on the same floor context; (ii) interference responses corresponding to head-dips into the hole baited at the other (second) discrimination (D2). Both parameters allow calculation of the SCM score
Mice were partially food-deprived for 1 week prior to experimentation and were maintained on a 12 ± 2% loss of their body weight throughout behavioral testing to increase motivation for food reward. During the food deprivation phase, mice were handled daily to familiarize them with the experimenter.
During the acquisition session, mice were first placed at the center of the board in a plastic tube for 15 s and then learned two successive spatial discriminations (D1 and D2) for 6 min each and were each separated by a 2-min interval. Between two sessions, each mouse was placed in its home cage in an animal housing room. For D1, ten 20-mg pellets were available only in one of the four holes in the board. For D2, ten 20-mg pellets were located in the opposite symmetrical hole. The environmental spatial cues remained at the same place for D1 and D2. Within each group, the floors used for the first and second discrimination (D1 and D2) were counterbalanced at the acquisition phase from one mouse to the other. A minimal amount of eight pellets should be eaten per mouse at either D1 or D2 during the acquisition phase.
During memory testing, D1 and D2 discriminations were performed in independent groups of mice, being replaced either on the floor of D1 or of D2. The food-deprived mice were replaced either on the floor of D1 or on the floor of D2. In each case, mice were allowed to explore the apparatus freely and performance was assessed by measuring the exploration for each hole for 6 min without any pellets in the apparatus. During the procedure, photocells allowed measurement of the number of head dips in each hole. Different parameters were further calculated: % of correct responses (head-dips into the hole previously baited on the same floor context), % of interfering responses (head-dips into the hole previously baited on the other floor context), and % of errors (head-dips into the two holes never previously baited).

Series [2] has as its system middle-aged mice. Further details: method as in Giralt et al. [2017]. Conditions: ref Giralt et al. [2017]; cited from earlier work.
In series [3] the test system is aged rats. Further details: method as in Calabrese et al. [2017]. The conditions noted are these: dorsal hippocampus and prefrontal cortex of aged rats; ref Calabrese et al. [2017]; cited from earlier work.
Series [4] deals with rats. Further details: method as in Bretin et al. [2017]. The conditions noted are these: acute administration, ref Bretin et al. [2017]; cited from earlier work.
Series [5] deals with normal adult mice. Set-up: method as in Bretin et al. [2017]. Conditions: acute administration, ref Bretin et al. [2017]; cited from earlier work.
The subject of series [6] is mice. Put plainly: Primary observation (Irwin) test. Conditions: S 47445 alone, 3 to 100 mg/kg p.o.; mice.
Text: Male Rj: C57BL/6J mice (Elevage Janvier, 53940 Le Genest-Saint-Isle, France), 23–27 g body weight range, were stabilized for at least 5 days after delivery in macrolon cages in groups of 10 (housing period) (25 × 19 × 13 cm) and then of 4 (starting the day before the test and during the test) in macrolon cages (25 × 19 × 13 or 32 × 13 × 14 cm) on wood litter with free access to food and water.
Between one and three treated groups were compared with the same control at any one time. […] In order to keep the same conditions, all the mice receiving a single treatment also received another administration with vehicle.
Behavioral modifications, physiological and neurotoxicity symptoms, and rectal temperature were recorded according to a standardized observation grid derived from that of Irwin. The grid contains the following items: death*, convulsions*, tremor*, Straub tail*, altered activity, excitation, jumping*, abnormal gait* (rolling, tip-toe), motor incoordination*, altered muscle tone, loss of grasping, akinesia, catalepsy, loss of traction, writhing*, piloerection*, stereotypies* (sniffing, chewing, head movements), head-twitches*, scratching*, altered respiration*, aggression*, altered fear, altered reactivity to touch, ptosis, exophthalmia, loss of righting reflex, loss of corneal reflex, analgesia, defecation/diarrhea, salivation, lacrimation, and rectal temperature (hypothermia/hyperthermia).

Regarding `O=C1c2cc3nnn(CCc4cccc(F)c4)c(=O)c3cc2OCN1C1CC1` [S 47445], in series [1] (Experiment 1 (study A and B), compounds alone, p> 0.10 in all analyses), the “Total number of explorations and % exploration of the baited hole, acquisition phase” value is recorded as “No significant between-groups difference”. Also, in series [1] (Experiment 1, S 47445 at all doses, donepezil at the active doses, versus middle-aged vehicle, data not shown), the “Memory performance in the second discrimination (D2)” value is given as “did not alter memory performance”. Also, the “Total number of head-dips, test phase” value in series [1] (Experiment 1, versus vehicles (p > 0.10 in all comparisons), data not shown) is “no significant effect”. Besides, the “Strength of contextual memory (SCM) score, first discrimination D1” value in series [1] (S 47445 0.1 mg/kg p.o. daily 9 days) is listed as 6.56%; in series [1] (S 47445 0.3 mg/kg p.o. daily 9 days), 10.57%. In addition, the “SCM score (LSMeans ± SE LSMeans)” value in series [1] (S 47445 0.1 mg/kg p.o. alone) was determined as 5.1515 ± 7.7919%; in series [1] (S 47445 0.3 mg/kg p.o. alone) it was 11.7033 ± 7.7919%. In addition, in series [1] (S 47445 0.03 mg/kg, all levels of donepezil pooled), the “Post hoc analysis of S 47445 effect on SCM score for all donepezil levels (Dunnett, versus vehicle group)” value is recorded as “+ (+p ≤ 0.050)”. Also, the “SCM score of the second discrimination (D2), dose effect at pooled levels of the other drug” value in series [1] (Supplemental data 2, S 47445 0.03–0.3 mg/kg p.o. (p=0.951), Donepezil 0.03 and 0.1 mg/kg (p=0.074)) is on record as “no significant effect”. Also, the “In vivo CA3-CA1 long-term potentiation and structural synaptic changes” value in series [2] was “rescues in vivo CA3-CA1 long-term potentiation and structural synaptic changes”. In addition, the Neurotrophic effects entry in series [3] was “displayed neurotrophic effects”. In addition, the “Episodic-like memory in object recognition” value in series [4] is “dose-related improvement”. In addition, the “Working-like memory in spontaneous alternation task” value in series [5] is “dose-related improvement”. Further, the “Observable effects in the Irwin test” value in series [6] is given as “devoid of any observable effect”.
